# Source: US7863325B2, “Crystalline genistein sodium salt dihydrate” (Axcentua Pharmaceuticals AB, priority 2008, dated 2011)
# Like-named read-outs stand apart in the source and are kept apart here.
# Experiments:
# [1] = Aqueous solubility (slurry shaken ca. 24 hours, filtered, HPLC); type: physicochemical; conditions: aqueous buffer, thermodynamic from solid
# Procedure: Aqueous Solubility: Aqueous solubility was measured using the following protocol. Slurries of genistein and of crystalline genistein sodium dihydrate salt were made up in aqueous media in which pH was set at 4.5, 6.7, and 7.5, each slurry was shaken at ambient temperature for ca. 24 hours and then filtered using a 0.2 μm filter into a clean vial. The saturated solutions were then diluted and analyzed for API (genistein) content using N-Ac-DL-Methionine on a Chirobiotic T HPLC column and UV detector set at λmax=270 nm. The mobile phase was acetonitrile/water run in isocratic mode over a 30 minute period. The results are presented in Table 3, (BDL=below detection limits).
# [2] = Solubility in different solvents (aliquot addition until dissolution); type: physicochemical
# Procedure: Solubility in different solvents: Solubility in different organic solvents was measured using the following protocol. Approximately 25 mg portions of genistein and crystalline genistein sodium dihydrate salt were placed in 48 different vials, separately. 5 volume aliquots of each solvent were added exclusively to a vial. Between each addition, the mixture was checked for dissolution and if no dissolution was apparent, the procedure was continued until dissolution was observed or when 50 volumes had been added.
# [3] = Hydration study (IPA/water mixtures, XRPD and TGA); type: physicochemical; conditions: IPA/water mixtures (3%, 5% and 10%), ca. 48 hours, ambient temperature
# Procedure: Approximately 100 mg of crystalline genistein sodium salt dihydrate were placed in ca. 500 μL IPA/water mixtures (3%, 5% and 10%) at the water level. Each mixture was agitated for ca. 48 hours at ambient temperature and then filtered to recover the solid for XRPD and TGA studies.
# [4] = Disproportionation study (slurry in distilled water, XRPD, pH); type: physicochemical; conditions: 50 mg slurried in 250 μL distilled water ca. 48 hours
# Procedure: A 50 mg sample of crystalline genistein sodium salt dihydrate was slurried in 250 μL distilled water for ca. 48 hours and then checked by XRPD for disproportionation. The pH of the supernatant was also measured using a Corning 240 pH meter. […] The pH of the supernatant after slurrying was 7.1.
# [5] = Gravimetric vapor sorption (GVS); type: physicochemical
# Procedure: Gravimetric Vapor Sorption (GVS): Approximately 15 mg of sample was placed into a wire-mesh vapor sorption balance pan and loaded into an SMS intrinsic vapor sorption balance supplied (Surface Measurement Systems Instruments). The sample was then dried by maintaining a 0% humidity environment until no further weight change was recorded. Subsequently, the sample was then subjected to a ramping profile from 0-90% RH at 10% RH increments, maintaining the sample at each step until equilibration had been attained (99.5% step completion). Upon reaching equilibration, the % RH within the apparatus was ramped to the next step and the equilibration procedure repeated. After completion of the sorption cycle, the sample was then dried using the same procedure. The weight change during the sorption/desorption cycles were then monitored, allowing for the hygroscopic nature of the sample to be determined.
# However, between 20 and 70 RH % (typical working range of material) only ca. 2% moisture change was observed.
# [6] = rat
# Procedure: Preparation of Dosing Solutions for In-Vivo Study: Genistein and Crystalline genistein sodium salt dihydrate were stored at room temperature under desiccant and protected from light. The dosing solutions were prepared fresh from powders on the day of dosing. The dosing solution for intravenous administration (IV) was prepared at 1 mg/mL (free acid) in 50:50 DMSO:saline. The dosing solutions for intraduodenal administration (ID) were prepared at 2 mg/mL (genistein free acid) in a 0.2% sodium carboxymethyl cellulose (Na CMC) solution in water.
# Animal Dosing: The pharmacokinetics of genistein was evaluated in fasted male Sprague-Dawley rats. Each animal was fitted with a jugular vein cannula (JVC) for blood sampling. Animals intended for intravenous dosing were fitted with an additional JVC for dose administration. Animals intended for intraduodenal dosing were fitted with an intraduodenal cannula (IDC) for dose administration. Surgically modified animals were housed one per cage. All animals were supplied with a commercial rodent diet (LabDiet, Certified Rodent Diet #5002) ad libitum prior to study initiation. […] Water was supplied ad libitum.
# Intraduodenal dosing solutions were administered as a single bolus dose at time zero on the day of dosing. Intravenous doses were administered as a slow IV injection over approximately 1 minute. Blood sampling times began at the end of the infusion. Blood samples were collected.
# Each blood sample was collected from the rats via a jugular vein cannula and placed into chilled polypropylene tubes containing sodium heparin as an anticoagulant. Samples were centrifuged at a temperature of 4° C. and at a speed of 13,000 rpm for 5 minutes. Samples were maintained chilled throughout processing. Each plasma sample was split into two aliquots. The first aliquot contained 50 μL of plasma. All remaining plasma volume was used for the second aliquot. Samples were then placed on dry ice, and stored in a freezer set to maintain −60° C. to −80° C. The total concentration of genistein in plasma samples were analyzed by LC-MS/MS after an overnight incubation with glucuronidase/arylsulfatase enzyme mixture. Pharmacokinetic parameters were calculated using the WinNonlin software.
# Analysis of Plasma Samples: An LC-MS/MS analytical method for the determination of genistein in rat plasma was developed. Prior to sample analysis, a standard curve was analyzed to determine the specificity, range, and linearity of the method. Total genistein in plasma samples was determined by pre-treating all samples with β-glucuronidase/arylsulfatase enzymes and incubating prior to analysis. Incubation with the enzyme mix deconjugated any glucuronide or sulfate metabolites of genistein back to the parent form.
# Acceptance Criteria for LC-MS/MS Analysis: One standard curve was dispersed throughout each analytical run. At least ⅝ of the standards must be accurate to within ±20%, except at the LLOQ where ±25% is acceptable, in order for the run to pass.
# Pharmacokinetic Analysis: Individual plasma concentrations versus time data for genistein were subjected to non-compartmental analysis using the pharmacokinetic program WinNonlin v. […] Plasma concentrations below the limit of quantitation (10 ng/mL) were assigned a value of zero for PK analysis only.
# [7] = SuperSol 1000 kinetic and equilibrium solubility assay
# [8] = Stability study (80° C., 40° C./75 RH %, light; XRPD and colour); type: physicochemical
# Procedure: Sample stability was tested at 80° C. for 7 days and at 40° C./75 RH % for 7 days. Observations such as color change were noted after 7 days and XRPD of samples were taken after 7 days to investigate any solid form change.
# [9] = intravenous, 1 mg/kg, mean ± SD, n = 3
compound,measurement,setting,value
O.O.O=c1c(-c2ccc(O)cc2)coc2cc(O)cc(O)c12.[Na] [genistein sodium salt dihydrate],solubility,"[1]; Water/slurry pH 4.5, ambient temperature",0.136 mg/mL
same,solubility,"[1]; Water/slurry pH 6.7, ambient temperature",0.707 mg/mL
same,solubility,"[1]; Water/slurry pH 7.5, ambient temperature",0.65 mg/mL
same,solubility,"[2]; aqueous with cosolvent or surfactant or cyclodextrin, thermodynamic from solid, Acetone/Water (50:50)",69.6 mg/mL
same,solubility,"[2]; organic solvent or mixture, thermodynamic from solid, 1,4-dioxane",< 10.6 mg/mL
same,solubility,"[2]; organic solvent or mixture, thermodynamic from solid, 1-Butanol (BuOH)",19.3 mg/mL
same,solubility,"[2]; organic solvent or mixture, thermodynamic from solid, 2-Propanol (IPA)",< 10.2 mg/mL
same,solubility,"[2]; organic solvent or mixture, thermodynamic from solid, Acetone",< 10.2 mg/mL
same,solubility,"[2]; organic solvent or mixture, thermodynamic from solid, Acetone/IPA (50:50)",20.2 mg/mL
same,solubility,"[2]; organic solvent or mixture, thermodynamic from solid, Acetonitrile (MeCN)",< 10.4 mg/mL
same,solubility,"[2]; organic solvent or mixture, thermodynamic from solid, Cyclohexane",< 10.9 mg/mL
same,solubility,"[2]; organic solvent or mixture, thermodynamic from solid, Dichloromethane (DCM)",< 10.8 mg/mL
same,solubility,"[2]; organic solvent or mixture, thermodynamic from solid, Diisopropylether (DIPE)",< 9.7 mg/mL
same,solubility,"[2]; organic solvent or mixture, thermodynamic from solid, Dimethyl sulfoxide (DMSO)",> 235 mg/mL
same,solubility,"[2]; organic solvent or mixture, thermodynamic from solid, Ethanol (EtOH)",98 mg/mL
same,solubility,"[2]; organic solvent or mixture, thermodynamic from solid, Heptane",< 9.9 mg/mL
same,solubility,"[2]; organic solvent or mixture, thermodynamic from solid, Methanol (MeOH)",< 8.8 mg/mL
same,solubility,"[2]; organic solvent or mixture, thermodynamic from solid, Methyl acetate (MeOAc)",< 10.2 mg/mL
same,solubility,"[2]; organic solvent or mixture, thermodynamic from solid, Methyl isobutyl ketone (MIBK)",< 9 mg/mL
same,solubility,"[2]; organic solvent or mixture, thermodynamic from solid, Methylethyl ketone (MEK)",< 9.2 mg/mL
same,solubility,"[2]; organic solvent or mixture, thermodynamic from solid, N-Methyl-2-pyrrolidinone (NMP)",90.4 mg/mL
same,solubility,"[2]; organic solvent or mixture, thermodynamic from solid, N-N-dimethylformamide (DMF)",> 218 mg/mL
same,solubility,"[2]; organic solvent or mixture, thermodynamic from solid, Octanol",< 11 mg/mL
same,solubility,"[2]; organic solvent or mixture, thermodynamic from solid, Tetrahydrofuran (THF)",< 10.4 mg/mL
same,solubility,"[2]; organic solvent or mixture, thermodynamic from solid, Toluene",< 9.9 mg/mL
same,solubility,"[2]; organic solvent or mixture, thermodynamic from solid, Toluene/Dioxane (50:50)",< 9.7 mg/mL
same,solubility,"[2]; organic solvent or mixture, thermodynamic from solid, tert-Butylmethyl ether (TBME)",< 9.2 mg/mL
same,"Hydrate formation (XRPD, TGA)",[3],no further hydrates
same,Disproportionation (XRPD),[4],No signs of disproportionation
same,pH of the supernatant after slurrying,[4],7.1
same,Maximum water adsorbed (GVS),[5]; 0-90% RH cycle,45 wt %
same,Moisture change (GVS),[5]; between 20 and 70 RH %,ca. 2%
same,Time after ID dosing at which Cmax was observed,"[6]; intraduodenal dosing, mean profile (FIG. 13)",≤ 15 min
same,AUClast,"[6]; intraduodenal, 20 mg/kg, mean ± SD, n = 3",1161 ± 358 kg·ng·h/mL/mg
same,"Pharmacokinetic profile following IV dosing, compared between the two forms","[6]; intravenous, 1 mg/kg",not significantly different
same,AUClast,[6]; [9],2129 ± 331 kg·ng·h/mL/mg
same,AUC∞,[6]; [9],2189 ± 356 kg·ng·h/mL/mg
same,C[Eq] (late kinetic solubility),[7]; EtOH 100%,11.20 mg×1^−1
same,C[MSS] (early kinetic solubility),[7]; EtOH 100%,10.85 mg×1^−1
same,ISI (Intrinsic Solubility Index),[7]; EtOH 100%,0.07
same,"ISI / late solubility profile, rating in words",[7]; EtOH 100%,poor
same,KSR (Kinetic Solubility ratio),[7]; EtOH 100%,0.97
same,"KSR, rating in words",[7]; EtOH 100%,excellent
same,MSS (Maximum Solubility Speed),[7]; EtOH 100%,36.90 mg×1^−1×min^−1
same,"MSS, rating in words",[7]; EtOH 100%,excellent
same,"ΔC [C, − CMSS]",[7]; EtOH 100%,0.35 mg×1^−1
same,C[Eq] (late kinetic solubility),[7]; EtOH/dH2O 50/50 (vol/vol),17.40 mg×1^−1
same,C[MSS] (early kinetic solubility),[7]; EtOH/dH2O 50/50 (vol/vol),14.67 mg×1^−1
same,ISI (Intrinsic Solubility Index),[7]; EtOH/dH2O 50/50 (vol/vol),0.60
same,"ISI / late solubility profile, rating in words",[7]; EtOH/dH2O 50/50 (vol/vol),good-to-acceptable
same,KSR (Kinetic Solubility ratio),[7]; EtOH/dH2O 50/50 (vol/vol),0.84
same,"KSR, rating in words",[7]; EtOH/dH2O 50/50 (vol/vol),excellent
same,MSS (Maximum Solubility Speed),[7]; EtOH/dH2O 50/50 (vol/vol),20.66 mg×1^−1×min^−1
same,"MSS, rating in words",[7]; EtOH/dH2O 50/50 (vol/vol),excellent
same,ΔC [CEq − CMSS],[7]; EtOH/dH2O 50/50 (vol/vol),2.73 mg×1^−1
same,C[Eq] (late kinetic solubility),[7]; EtOH/dH2O 75/25 (vol/vol),15.86 mg×1^−1
same,C[MSS] (early kinetic solubility),[7]; EtOH/dH2O 75/25 (vol/vol),11.20 mg×1^−1
same,ISI (Intrinsic Solubility Index),[7]; EtOH/dH2O 75/25 (vol/vol),1.26
same,"ISI / late solubility profile, rating in words",[7]; EtOH/dH2O 75/25 (vol/vol),excellent
same,KSR (Kinetic Solubility ratio),[7]; EtOH/dH2O 75/25 (vol/vol),0.71
same,"KSR, rating in words",[7]; EtOH/dH2O 75/25 (vol/vol),excellent
same,MSS (Maximum Solubility Speed),[7]; EtOH/dH2O 75/25 (vol/vol),37.33 mg×1^−1×min^−1
same,"MSS, rating in words",[7]; EtOH/dH2O 75/25 (vol/vol),excellent
same,ΔC [CEq − CMSS],[7]; EtOH/dH2O 75/25 (vol/vol),4.66 mg×1^−1
same,"Solid form stability (XRPD, colour)",[8]; 40° C./75 RH % for 7 days,no change
same,"Solid form stability (XRPD, colour)",[8]; 80° C. for 7 days,slight loss in crystallinity
same,Light stability,[8]; 7 day light stability tests,no change in color or solid form
